Patent publication US10336774B2, “N-azaspirocycloalkane substituted N-heteroaryl compounds and compositions for inhibiting the activity of SHP2” (NOVARTIS AG, priority 2014, dated 2019)

The compounds below were run against SHP2 (Homo sapiens (Human), UniProt Q06124) (assay: SHP2 Allosteric Inhibition Assay). Conditions: 0.5 nM SHP2 activated with 0.5 μM peptide IRS1_pY1172(dPEG8)pY1222, surrogate substrate DiFMUP, fluorescence.
Assay type: biochemical
Excerpt: SHP2 Allosteric Inhibition Assay SHP2 is allosterically activated through binding of bis-tyrosyl-phorphorylated peptides to its Src Homology 2 (SH2) domains. The latter activation step leads to the release of the auto-inhibitory interface of SHP2, which in turn renders the SHP2 protein tyrosine phosphatase (PTP) active and available for substrate recognition and reaction catalysis. The catalytic activity of SHP2 was monitored using the surrogate substrate DiFMUP in a prompt fluorescence assay format. […] After 30-60 minutes incubation at 25° C., the surrogate substrate DiFMUP (Invitrogen, cat# D6567) was added to the reaction and incubated at 25° C. for 30 minutes. […] The inhibitor dose response curves were analyzed using normalized IC50 regression curve fitting with control based normalization.

IC50 | SMILES
15 nM | Nc1nc(N2CCC3(CCC[C@H]3N)CC2)cnc1Sc1cccnc1Cl [Example 29, (R)-8-(6-amino-5-((2-chloropyridin-3-yl)thio)pyrazin-2-yl)-8-azaspiro[4.5]decan-1-amine]
20 nM | Nc1nc(N2CCC3(CCC[C@H]3N)CC2)cnc1Sc1cc[nH]c(=O)c1Cl [Example 81, (R)-4-((3-amino-5-(1-amino-8-azaspiro[4.5]decan-8-yl)pyrazin-2-yl)thio)-3-chloropyridin-2(1H)-one]
290 nM | Nc1nc(N2CCC3(CCCC3N)CC2)nnc1Sc1cccnc1C(F)(F)F (stereo in doubt) [Example 23, (S)-8-(5-amino-6-((2-(trifluoromethyl)pyridin-3-yl)thio)-1,2,4-triazin-3-yl)-8-azaspiro[4.5]decan-1-amine]
4090 nM | Nc1nc(N2CCC3(CC2)C(N)CCS3(=O)=O)cnc1Sc1cccc(Cl)c1Cl (centres unmarked) [Example 19]
28 nM | Nc1nc(N2CCC3(CC[C@@H]3N)CC2)cnc1Sc1ccnc(Cl)c1Cl [Example 31, (S)-7-(6-amino-5-((2,3-dichloropyridin-4-yl)thio)pyrazin-2-yl)-7-azaspiro[3.5]nonan-1-amine]
610 nM | NC1=NC(=O)CC12CCN(c1cnc(Sc3cccnc3C(F)(F)F)c(N)n1)CC2 [Example 50]
5 nM | Nc1nc(N2CCC3(CCC[C@H]3N)CC2)cnc1Sc1ccnc(F)c1Cl [Example 33, (R)-8-(6-amino-5-((3-chloro-2-fluoropyridin-4-yl)thio)pyrazin-2-yl)-8-azaspiro[4.5]decan-1-amine]
310 nM | Nc1nc(N2CCC3(CCC[C@H]3N)CC2)cnc1Sc1cc(F)ncc1Cl [Example 65]
2780 nM | Nc1nc(N2CCC3(CCC[C@@H]3N)CC2)ncc1Sc1cccnc1C(F)(F)F [Example 24, (S)-8-(4-amino-5-((2-(trifluoromethyl)pyridin-3-yl)thio)pyrimidin-2-yl)-8-azaspiro[4.5]decan-1-amine]
7 nM | Nc1nc(N2CCC3(CC2)C[C@@H](O)C[C@H]3N)cnc1Sc1ccnc(N)c1Cl [Example 41, (2R,4R)-4-amino-8-(6-amino-5-((2-amino-3-chloropyridin-4-yl)thio)pyrazin-2-yl)-8-azaspiro[4.5]decan-2-ol]
4 nM | CO[C@H]1C[C@@H](N)C2(CCN(c3cnc(Sc4ccnc(Cl)c4Cl)c(N)n3)CC2)C1 [Example 60]
32 nM | NC1=NCCC12CCN(c1cnc(Sc3cccnc3C(F)(F)F)c(N)n1)CC2 [Example 34, 8-(6-amino-5-((2-(trifluoromethyl)pyridin-3-yl)thio)pyrazin-2-yl)-2,8-diazaspiro[4.5]dec-1-en-1-amine]
1110 nM | Nc1nc(N2CC3(CCC3N)C2)cnc1-c1cccc(Cl)c1Cl (centres unmarked) [Example 9]
10 nM | Nc1nc(N2CCC3(CC2)CC(F)(F)C[C@H]3N)cnc1Sc1ccnc(N)c1Cl [Example 67]
38 nM | Nc1nc(N2CCC3(CC[C@@H]3N)CC2)cnc1Sc1cccnc1C(F)(F)F [Example 20, (S)-7-(6-amino-5-((2-(trifluoromethyl)pyridin-3-yl)thio)pyrazin-2-yl)-7-azaspiro[3.5]nonan-1-amine]
20 nM | NC1=NC2(CCN(c3cnc(Sc4ccnc(Cl)c4Cl)c(N)n3)CC2)CO1 [Example 73]
306 nM | Nc1nc(N2CCC3(CC2)CCC(F)(F)[C@@H]3N)cnc1Sc1cccnc1C(F)(F)F (racemic) [Example 83b, (R) and (S)-8-(6-amino-5-((2-(trifluoromethyl)pyridin-3-yl)thio)pyrazin-2-yl)-2,2-difluoro-8-azaspiro[4.5]decan-1-amine]
11.8 nM | Nc1cc(Sc2ncc(N3CCC4(CC3)COC[C@H]4N)nc2N)c(Cl)c(Cl)n1 [Example 89]
234 nM | CN[C@@H]1C[C@H](O)CC12CCN(c1cnc(Sc3cccnc3C(F)(F)F)c(N)n1)CC2 [Example 49]
44 nM | CO[C@@H]1C[C@@H](N)C2(CCN(c3cnc(Sc4ccnc(N)c4Cl)c(N)n3)CC2)C1 [Example 45]
4 nM | Nc1nc(N2CCC3(CC2)C[C@@H](O)C[C@H]3N)cnc1Sc1ccnc(Cl)c1Cl [Example 58]
5 nM | C[C@H]1C[C@@H](N)C2(CCN(c3cnc(Sc4ccnc(N)c4Cl)c(N)n3)CC2)C1 [Example 70, (1R,3R)-8-(6-amino-5-((2-amino-3-chloropyridin-4-yl)thio)pyrazin-2-yl)-3-methyl-8-azaspiro[4.5]decan-1-amine]
73 nM | Nc1nc(N2CCC3(CCCC3N)CC2)cnc1-c1cccc(Cl)c1Cl (centres unmarked) [Example 7]
7 nM | Nc1nc(N2CCC3(CC2)COC[C@H]3N)cnc1Sc1ccnc(N)c1Cl [Example 52]
4 nM | C[C@@H]1OCC2(CCN(c3cnc(Sc4cc(N)nc(Cl)c4Cl)c(N)n3)CC2)[C@@H]1N [Example 88]

IC50 | SMILES
10 nM | CO[C@H]1C[C@@H](N)C2(CCN(c3cnc(Sc4ccnc(N)c4Cl)c(N)n3)CC2)C1 [Example 59]
135 nM | Nc1nc(N2CCC3(CC2)C[C@@H](O)C[C@@H]3N)cnc1Sc1cccnc1C(F)(F)F [Example 44]
38 nM | CO[C@@H]1C[C@@H](N)C2(CCN(c3cnc(Sc4ccnc(Cl)c4Cl)c(N)n3)CC2)C1 [Example 46]
7 nM | Nc1nc(N2CCC3(CC2)COC[C@H]3N)cnc1Sc1ccnc(Cl)c1Cl [Example 63]
193 nM | NC1=NCC2(CCN(c3cnc(Sc4cccnc4C(F)(F)F)c(N)n3)CC2)O1 [Example 72, 8-(6-amino-5-((2-(trifluoromethyl)pyridin-3-yl)thio)pyrazin-2-yl)-1-oxa-3,8-diazaspiro[4.5]dec-2-en-2-amine]
9 nM | C[C@@H]1CCC2(CCN(c3cnc(Sc4ccnc(N)c4Cl)c(N)n3)CC2)[C@@H]1N [Example 56]
232 nM | Nc1nc(N2CCC3(CC2)OCCC3N)cnc1Sc1cccnc1C(F)(F)F (centres unmarked) [Example 35]
56 nM | Nc1nc(N2CCC3(CCC3N)CC2)cnc1Sc1cccc(Cl)c1Cl (racemic) [Example 14, 7-(6-amino-5-((2,3-dichlorophenyl)thio)pyrazin-2-yl)-7-azaspiro[3.5]nonan-1-amine]
10 nM | CN(C)c1nccc(Sc2ncc(N3CCC4(CCC[C@H]4N)CC3)nc2N)c1Cl [Example 75, (R)-8-(6-amino-5-((3-chloro-2-(dimethylamino)pyridin-4-yl)thio)pyrazin-2-yl)-8-azaspiro[4.5]decan-1-amine]
7 nM | C[C@@H]1C[C@@H](N)C2(CCN(c3cnc(Sc4cccnc4C(F)(F)F)c(N)n3)CC2)C1 [Example 61]
349 nM | Nc1nc(N2CCC3(CC2)OCC[C@H]3N)cnc1Sc1cccnc1C(F)(F)F [Example 5]
58 nM | NC(=O)c1nc(Sc2ccnc(C(F)(F)F)c2Cl)c(N)nc1N1CCC2(CCC[C@H]2N)CC1 [Example 25, (R)-5-amino-3-(1-amino-8-azaspiro[4.5]decan-8-yl)-6-((3-chloro-2-(trifluoromethyl)pyridin-4-yl)thio)pyrazine-2-carboxamide]
23 nM | Nc1nc(N2CCC3(CCC[C@H]3N)CC2)cnc1Sc1ccncc1Cl [Example 28, (R)-8-(6-amino-5-((3-chloropyridin-4-yl)thio)pyrazin-2-yl)-8-azaspiro[4.5]decan-1-amine]
6 nM | Nc1nc(N2CCC3(CC2)C[C@H](O)C[C@H]3N)cnc1Sc1cccnc1C(F)(F)F [Example 43]
14 nM | Nc1nc(N2CCC3(CCC[C@H]3N)CC2)cnc1Sc1ccnc(N)c1Cl [Example 26, (R)-8-(6-amino-5-((2-amino-3-chloropyridin-4-yl)thio)pyrazin-2-yl)-8-azaspiro[4.5]decan-1-amine]
16 nM | NC(=O)c1cccc(Sc2ncc(N3CCC4(CCC[C@H]4N)CC3)nc2N)c1Cl [Example 40, (R)-3-((3-amino-5-(1-amino-8-azaspiro[4.5]decan-8-yl)pyrazin-2-yl)thio)-2-chlorobenzamide]
882 nM | Nc1nc(N2CCC3(CC2)CCC(F)(F)[C@@H]3N)cnc1Sc1cccnc1C(F)(F)F (racemic) [Example 83a, (R) and (S)-8-(6-amino-5-((2-(trifluoromethyl)pyridin-3-yl)thio)pyrazin-2-yl)-2,2-difluoro-8-azaspiro[4.5]decan-1-amine]
7 nM | Nc1nc(N2CCC3(CC2)C[C@@H](O)C[C@H]3N)cnc1Sc1cccnc1C(F)(F)F [Example 42]
10 nM | NC(=O)c1nc(Sc2cccnc2C(F)(F)F)c(N)nc1N1CCC2(CCCC2N)CC1 (stereo in doubt) [Example 21, (S)-5-amino-3-(1-amino-8-azaspiro[4.5]decan-8-yl)-6-((2-(trifluoromethyl)pyridin-3-yl)thio)pyrazine-2-carboxamide]
9.3 nM | Nc1cc(Sc2ncc(N3CCC4(CCC[C@H]4N)CC3)nc2N)c(Cl)c(Cl)n1 [Example 87]
8 nM | Nc1nc(N2CCC3(CC2)C[C@@H](F)C[C@H]3N)cnc1Sc1ccnc(N)c1Cl [Example 91]
5 nM | C[C@@H]1C[C@@H](N)C2(CCN(c3cnc(Sc4ccnc(N)c4Cl)c(N)n3)CC2)C1 [Example 71, (1R,3S)-8-(6-amino-5-((2-amino-3-chloropyridin-4-yl)thio)pyrazin-2-yl)-3-methyl-8-azaspiro[4.5]decan-1-amine]
15 nM | COc1nccc(Sc2ncc(N3CCC4(CCC[C@H]4N)CC3)nc2N)c1Cl [Example 78]
3550 nM | Nc1nc(N2CCC3(CC2)C(N)CCS3(=O)=O)cnc1-c1cccc(Cl)c1Cl (centres unmarked) [Example 18]
5360 nM | Nc1nc(N2CC3(CCC3N)C2)cnc1Sc1cccc(Cl)c1Cl (racemic) [Example 8, 2-(6-amino-5-((2,3-dichlorophenyl)thio)pyrazin-2-yl)-2-azaspiro[3.3]heptan-5-amine]
